# Test results published in patent US6867305B2, “Synthesis of epothilones, intermediates thereto and analogues thereof” (Sloan-Kettering Institute for Cancer Research, priority 1996, dated 2005).
# Several values for one entry are separate records, joined by “and”; a condition that tells them apart may be missing. Equal entries are not always repeated. Where two headings read alike, the source gives them in different places.
# How the values were obtained:
# [1] = test system: MCF-7/Adr mammary xenograft; assay: Human tumor xenograft in nude mice; type: in vivo
# [2] = test system: DC-3F hamster lung fibroblasts; assay: Tumor cell growth inhibition in vitro; type: cell-based
# Protocol: The fresh medium containing each drug was replenished every 7-14 days. […] In each case ,the drug-exposed cells were resuspended in fresh media for a minimum of 4 days before the experiments for the cell-growth inhibition was carried out.
# The cells were cultured at an initial density of 2-5×10^4 cells per ml. They were maintained in a 5% CO2-humidified atmosphere at 37° C. in RPMI mediun 1640 (GIBCO/BRL) containing penicillin (100 units/ml), streptomycin (100 μg/ml) (GIBCO/BRL), and 5% heat-inactivated fetal bovine serum. For solid tumor cells growing in a monolayer (such as MCF-7/Adr), cytotoxicitiy of the drug was determined in 96-well microtiter plates by using the sulforhodamine B method as described by Skehan et al (23) for measuring the cellular protein content. For cells that were grown in suspension (such as CCRF-CEM and its sublines), cytotoxicitiy was measured by using the 2,-3-bis(2-methoxy-4-nitro-5-sulfophenyl)-5carboxanilide)-2H terazodium hydroxide (XTT)-microculture tetrazonium method (24) in duplicate in 96-well microtiter plates. For both methods, the absorbance of each well was measured with a microplate reader (EL-340, Bio-Tek, Burlington, Vt.). Each run entailed six or seven concentrations of the tested drugs. Dose-effect relationship data were analyzed with the median-effect plot (25) by using a previously described computer program (26).
# [3] = test system: SK-OV-3 ovary adenocarcinoma xenograft; assay: Human tumor xenograft in nude mice; type: in vivo
# Summary of the method: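 Male athymic nu/nu mice bearing s.c. flank tumours from 5×10^6 cells or 30-50 mg tissue; dosing began at 35-200 mm^3 as 6 hr tail-vein i.v. infusion every other day ×5 unless otherwise indicated. Caliper tumour volume, body weight and lethality recorded every other day; 3-5 mice per group.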
# [4] = test system: Human lung carcinoma A549 cells; settings: A549 cells exposed to IC50-IC90: VBL 14.3 months, paclitaxel and adriamycin 21.3 months, dEpoB 21.4 months
# Text: Repeated exposure of human lung carcinoma A549 cells to sublethal concentrations of antitumor agents may lead to the development of drug resistance.
# Every several weeks, cells were harvested for the dose-effect analysis to determine their folds of resistance (using SRB protein staining assay) based on comparing the IC50 value with the IC50 value of the untreated parent cells. Trypsinized/washed cells were used for propagating the cell lineage.
# [5] = Toxicity in beagle dogs, 10-min i.v. infusion; type: in vivo, beagle dog
# Protocol: (§1) dEpoB at doses of 2, 6, 12 and 20 mg/kg, were given to male beagle dogs (11.2-14 kg) via i.v. infusion. The infusion volume was 1 ml/kg for 10 min using the Harvard PHD2000 pump (Harvard Apparatus). dEpoB was formulated in Cremophor 3%, ethanol 3%, propyleneglycol 40% and 5% glucose 54%. The animal was pretreated at −30 min with Benadryl 5 mg/kg, i.v.; cimetidine 5 mg/kg i.m.; and dexamethasone 1 mg/kg, i.e. to minimize allergic reactions due to Cremophor administration.
# At 12 mg/kg. […] The body-weight slowly recovered in 2-3 weeks. […] There was a gross abnormality (reddish discoloration) of the intestinal mucosa from duodenum to the ileum. The small intestines contained blood tinged mucinous materials. […] Necrosis of intestinal mucosal epithelium with crypt cells most severely affected at this lethal dose.
# [6] = Pharmacokinetics in beagle dogs; type: in vivo; settings: male, dog, plasma, intravenous, 6 mg/kg, 10-min i.v. infusion
# Protocol: as §1
# Pharmacokinetic studies were also carried out for of dEpoB in beagle dogs at 6 mg/kg (120 mg/m^2 body surface), with 10-min i.v. infusion. Serial blood samples were collected in 5 ml heparinized tubes intermittently from-15 min to 24 hours. Plasma concentrations of dEpoB were determined by HPLC as described in methods.
# Human blood plasma or nude mice plasma (300 μl) containing dEpoB (0.05-20 μg/ml) was added 30 μl of methanol and mixed for 2 min and then added 300 μl of methanol. The centrifuge supernatant was used for high performance liquid chromatography (HPLC). Nova-pak C18 column (15 cm) was used, with 50% acetonitrile/water with 0.8% triethylamine and 0.2% phosphoric acid as mobile phase. UV absorbance at 250 nm was measured.
# [7] = test system: tubulin; assay: Tubulin-binding / tubulin polymerization assay; type: biochemical
# [8] = dEpoB 30 mg/kg, Taxol 24 mg/kg, Q2Dx5, 6-hr i.v. infusion
# [9] = SK-OV-3, dEpoB 30 mg/kg, Taxol 15 mg/kg, Q2Dx6, 6-hr i.v. infusion
smiles,measurement,setting,value
"CC(=O)O[C@H]1C(=O)[C@@]2(C)[C@H]([C@H](OC(=O)c3ccccc3)[C@]3(O)C[C@H](OC(=O)[C@H](O)[C@@H](NC(=O)c4ccccc4)c4ccccc4)C(C)=C1C3(C)C)[C@]1(OC(C)=O)CO[C@@H]1C[C@@H]2O [Taxol, paclitaxel, reference compound]",Tumor Disappearance,[1]; [8],0/4
"C/C(=C\c1csc(C)n1)C1C[C@@H]2O[C@]2(C)CCC[C@H](C)[C@H](O)[C@@H](C)C(=O)C(C)(C)C(O)CC(=O)N1 (stereo partly drawn) [aza-EpoB, aza-epothilone B]",IC50,"[2]; Mesocricetus auratus, DC3F, read-out: IC50",8.7 nM
"C/C1=C/C[C@@H](/C(C)=C/c2csc(C)n2)OC(=O)C[C@H](O)C(C)(C)C(=O)[C@H](C)[C@@H](O)[C@@H](C)CCC1 [dEpoB, 12,13-desoxyepothilone B]",IC50,[2],2.5 nM
same,IC50,"[2]; Mesocricetus auratus, DC3F",1.9 nM
same,Therapeutic Effect Rank Order,"[3]; SK-OV-3, i.v. infusion",Taxol>>dEpoB
same,Therapeutic Effect Rank Order,"[3]; SK-OV-3, i.v. or i.p., ref 19 (Table 6)",dEpoB≈Taxol
same,Therapeutic Effects dEpoB vs Taxol,"[3]; SK-OV-3, dEpoB 30 mg/kg, Taxol 15 mg/kg, Q2Dx6",<<
same,Lowest Average Tumor Size (T/C),[3]; [9],0.17
same,Tumor Disappearance,[3]; [9],0/3
same,fold resistance developed to the drug after repeated exposure,[4],21 fold
same,Lowest Average Tumor Size (T/C),[1]; [8],0.11
same,Tumor Disappearance,[1]; [8],0/3
same,Therapeutic Effect Rank Order,"[1]; i.p., ref 19 (Table 5)",dEpoB>Camptothecin>Adriamycin>Taxol
same,Therapeutic Effect Rank Order,[1]; i.v. infusion,"dEpoB>>VP-16, Taxol>VBL, Adriamycin"
same,clinical signs,[5]; 12 mg/kg,moderate diarrhea (without blood)
same,decrease in white blood cell (WBC) counts,[5]; 12 mg/kg,13%
same,drop in body-weight on day 3,[5]; 12 mg/kg,1.3 kg
same,histopathology of 28 organs or tissues,[5]; 12 mg/kg,No significant histopathologic lesions
same,"platelet counts, ALT, AST",[5]; 12 mg/kg,No significant changes
same,WBC on day 3,[5]; 20 mg/kg,0.6 k/μl
same,body-weight loss on day 2,[5]; 20 mg/kg,0.9 kg
same,body-weight loss on day 3,[5]; 20 mg/kg,3.6 kg
same,increase in ALT and AST by day 4,[5]; 20 mg/kg,3-6 fold
same,lethality,[5]; 20 mg/kg,expired on day 4
same,clinical signs on day 2,[5]; 20 mg/kg i.v.,severe bloody diarrhea and dehydration
same,toxicity,[5]; 2 or 6 mg/kg (40 and 120 mg/m^2),No significant toxicity
same,concentration at 24 hr,[6]; read-out: plasma concentration at the end of 24-hr collection,45 ng/mL and 92 nM
same,half-life,[6]; read-out: α-phase t1/2 (converted),1.9 h
same,half-life,[6]; read-out: β-phase t1/2 (converted),21 h
"C/C1=C/C[C@@H](/C(C)=C/c2csc(CO)n2)OC(=O)C[C@H](O)C(C)(C)C(=O)[C@H](C)[C@@H](O)[C@@H](C)CCC1 [dEpoF, 12,13-Desoxyepothilone F]",tubulin-binding activity retained relative to dEpoB,[7],90%
